Results reported in patent US7368232B2, “High-throughput assay for virus entry and drug screening” (priority 2003, dated 2008).

How the values were obtained:
[1] = tested on: VSV-G pseudotyped virus; assay type: cell-based, vesicular stomatitis virus
[2] = tested on: VSV-G pseudotyped virus containing env-luc1; assay type: cell-based, vesicular stomatitis virus
[3] = tested on: Friend MLV containing env-luc1; assay type: cell-based, Friend murine leukemia virus
[4] = tested on: VSV env pseudotyped virus; assay type: cell-based, Vesicular Stomatitis Virus
[5] = tested on: Rabies env pseudotyped virus; assay type: cell-based
[6] = tested on: MLV env pseudotyped virus; assay type: cell-based, murine leukemia virus
[7] = tested on: Ebola env pseudotyped virus; assay type: cell-based

Row | SMILES | reduction of infection (β-galactosidase infection assay) [1] | effect on luciferase entry signal [2] | effect on luciferase entry signal [3] | effect on luciferase activities in the viral entry assay [4] | effect on luciferase activities in the viral entry assay [5] | effect on luciferase activities in the viral entry assay [6] | effect on entry of Ebola virus env pseudotyped particles [7] | decrease of luciferase entry signal [2]
1 | CO/C1=C\C(C)=C\[C@@H](C)[C@@H](O)[C@@H](C)C/C(C)=C/C=C/[C@H](OC)[C@@H]([C@@H](C)[C@@H](O)[C@H](C)[C@@]2(O)C[C@@H](O)[C@H](C)[C@@H](C(C)C)O2)OC1=O [bafilomycin A1] | 100 fold | inhibited the signal | only weakly affected | completely inhibit | completely inhibit | little effect | significantly inhibited | –
2 | Cl.N [ammonium chloride] | – | inhibited the signal | only weakly affected | completely inhibit | completely inhibit | – | significantly inhibited | –
3 | CCN(CC)CCCC(C)Nc1ccnc2cc(Cl)ccc12 (stereo not shown) [chloroquine] | 20 fold | inhibited the signal | only weakly affected | – | – | – | – | 7 fold
